Source: PMC7961763, “Semi-Synthesis of Harringtonolide Derivatives and Their Antiproliferative Activity” (Molecules, 2021)
“Also recorded” adds a separate entry of the source. Like-named read-outs stand apart in the source and are kept apart here.

Experiments:
[1] = test system: Huh-7 (human hepatoma cancer cell line); assay: MTT assay, cytotoxicity against Huh-7; format: cell-based; settings: read-out: IC50 Huh-7
Protocol: (§1) All the synthesized derivatives of HO were tested for their antiproliferative activity against four human cancer cell lines, including the HCT-116, A375, A-549, and Huh-7 cell lines, using the MTT assay. Cisplatin was used as a positive control, while lead compound HO (1) was also included in the study for comparison.
(§2) HCT-116 (Human colon cancer cell line), A375 (human melanoma cancer cell line), A-549 (human lung adenocarcinoma cell line), Huh-7 (human hepatoma cancer cell line), and L-02 (normal hepatic cell line) were purchased from the Cell Bank of Shanghai Institute of Biochemistry and Cell Biology, Chinese Academy of Sciences (Shanghai, China). The cells were cultured in Dulbecco’s modified Eagle medium (DMEM; NY, USA), which were all supplemented with 10% fetal bovine serum (FBS; NY, USA) at 37 °C with 5% CO2.
(§3) The cytotoxic activity was evaluated using the MTT assay. Briefly, cells were seeded in 96-well plates at a density of 5 × 10^3 cells/well in 100 μL of DMEM medium at 37 °C for 24 h. Stock solutions of test compounds were prepared in DMSO at concentration of 50 mM, and twofold serial dilution with a culture medium was performed to obtain appropriate concentrations right before the assay. After that, the cells were incubated with synthetic derivatives or cisplatin as a positive control at the various concentrations (0.78125-50 μM) for 48 h. Then, 20 μL of 3-(4,5-Dimethylthiazol-2-yl)-2,5-diphenyltetrazolium bromide (MTT, Aladdin, Shanghai, China) solution (5 mg/mL in PBS) was added, and then the cells were incubated at 37 °C for an additional 4 h. The supernatant was removed, and 150 μL of dimethyl sulfoxide was added to dissolve the MTT formazan. The optical density (OD) was measured on a microplate reader (SpectraMax Plus 384, Molecular Devices, Sunnyvale, CA, USA) at a wavelength of 570 nm. The cytotoxic activity was expressed as the IC50 values. The above tests were repeated three times in parallel. Vehicle DMSO (0.1%) was used as a negative control.

[2] = test system: HCT-116, A375, A549, and Huh-7 cells; assay: MTT assay, statements for the whole panel of tested cancer cells; format: cell-based, human; settings: for IC50: Homo sapiens, all tested cancer cells (HCT-116, A375, A549, Huh-7), read-out: IC50 against tested cells; for cytotoxic activities against three other cancer cell lines (result in words): cell lines other than A549; for cytotoxic activities against four tested cancer cells (result in words): HCT-116, A375, A549, Huh-7, tested up to 50 μM
Protocol: as §1, §2, §3

[3] = test system: A375 (human melanoma cancer cell line); assay: MTT assay, cytotoxicity against A375; format: cell-based; settings: read-out: IC50 A375
Protocol: as §1, §2, §3

[4] = test system: HCT-116 (human colon cancer cell line); assay: MTT assay, cytotoxicity against HCT-116; format: cell-based; settings: read-out: IC50 HCT-116
Protocol: as §1, §2, §3

[5] = test system: A-549 (human lung adenocarcinoma cell line); assay: MTT assay, cytotoxicity against A549; format: cell-based; settings: read-out: IC50 A549
Protocol: as §1, §2, §3

[6] = Homo sapiens, Huh-7, 48 h, MTT, 48 h, Huh-7 cells
[7] = Homo sapiens, A-375, 48 h, MTT, 48 h, A375 cells
[8] = Homo sapiens, HCT-116, 48 h, MTT, 48 h, HCT-116 cells
[9] = Homo sapiens, A549, 48 h, MTT, 48 h, A549 cells

Cc1cc(=O)cc2c3c1C1OC4C5OC(=O)C(CC2OC(=O)c2ccccc2)(C4C)C3C15 [Compound 11d, (3R,4aR,9S,10aS,11S)-5,11-dimethyl-1,7-dioxo-2a,2a1,3,4a,7,9,10,10a1-octahydro-1H-2,4-dioxa-3,10a-methanocyclohepta[bc]cyclopenta[jk]acenaphthylen-9-yl benzoate]
IC50 [1, 6]: > 50 µM | IC50 [2]: > 50 µM | IC50 [3, 7]: > 50 µM | IC50 [4, 8]: > 50 µM | IC50 [5, 9]: > 50 µM

Cc1cc(=O)cc2c3c1C1OC4C5OC(=O)C(CC2OC(=O)c2ccccn2)(C4C)C3C15 [Compound 11e, (3R,4aR,9S,10aS,11S)-5,11-dimethyl-1,7-dioxo-2a,2a1,3,4a,7,9,10,10a1-octahydro-1H-2,4-dioxa-3,10a-methanocyclohepta[bc]cyclopenta[jk]acenaphthylen-9-yl picolinate]
IC50 [1, 6]: > 50 µM | cytotoxic activities against three other cancer cell lines (result in words) [2]: weak cytotoxic activities | IC50 [3, 7]: 7.08 ± 0.42 µM | IC50 [4, 8]: 5.47 ± 0.27 µM | IC50 [5, 9]: 18 ± 4.18 µM

CC(=O)OC1CC23C(=O)OC4C(OC5c6c(C)cc(=O)cc1c6C2C54)C3C [Compound 11a, (3R,4aR,9S,10aS,11S)-5,11-dimethyl-1,7-dioxo-2a,2a1,3,4a,7,9,10,10a1-octahydro-1H-2,4-dioxa-3,10a-methanocyclohepta[bc]cyclopenta[jk]acenaphthylen-9-yl acetate]
IC50 [1, 6]: > 50 µM | cytotoxic activities against three other cancer cell lines (result in words) [2]: weak cytotoxic activities | IC50 [3, 7]: 30.1 ± 1.58 µM | IC50 [4, 8]: 5.95 ± 0.45 µM | IC50 [5, 9]: 27.5 ± 0.89 µM

Cc1cc(=O)cc2c3c1C1OC4C5OC(=O)C(CC2=O)(C4C)C3C15 [Compound 13, (3R,4aR,10aS,11S)-5,11-dimethyl-2a,3,4a,10a1-tetrahydro-1H-2,4-dioxa-3,10a-methanocyclohepta[bc]cyclopenta[jk]acenaphthylene-1,7,9(2a1H,10H)-trione]
IC50 [1, 6]: > 50 µM | IC50 [2]: > 50 µM | IC50 [3, 7]: > 50 µM | IC50 [4, 8]: > 50 µM | IC50 [5, 9]: > 50 µM

COc1c2c3c(c(C)cc1=O)C1OC4C5OC(=O)C(CC2)(C4C)C3C15 [Compound 9, (3R,4aR,10aS,11S)-8-methoxy-5,11-dimethyl-2a,3,4a,9,10,10a1-hexahydro-1H-2,4-dioxa-3,10a-methanocyclohepta[bc]cyclopenta[jk]acenaphthylene-1,7(2a1H)-dione]
IC50 ([1]; Homo sapiens, Huh-7, 48 h): > 50 µM | cytotoxic activities against four tested cancer cells (result in words) [2]: inactive; also recorded: losing of cytotoxic activities | IC50 ([3]; Homo sapiens, A-375, 48 h): > 50 µM | IC50 ([4]; Homo sapiens, HCT-116, 48 h): > 50 µM | IC50 ([5]; Homo sapiens, A549, 48 h): > 50 µM

CC(=O)Nc1c2c3c(c(C)cc1=O)C1OC4C5OC(=O)C(CC2)(C4C)C3C15 [Compound 3, N-((3R,4aR,10aS,11S)-5,11-dimethyl-1,7-dioxo-2a,2a1,3,4a,7,9,10,10a1-octahydro-1H-2,4-dioxa-3,10a-methanocyclohepta[bc]cyclopenta[jk]acenaphthylen-8-yl) acetamide]
IC50 [1, 6]: > 50 µM | cytotoxic activities against four tested cancer cells (result in words) [2]: losing of cytotoxic activities | IC50 [3, 7]: > 50 µM | IC50 [4, 8]: > 50 µM | IC50 [5, 9]: > 50 µM

Cc1ccc2c3c1C1OC4C5OC(=O)C(CC2=O)(C4C)C3C15 [Compound 7, (3R,4aR,9aS,10S)-5,10-dimethyl-2a,2a1,4a,9a1-tetrahydro-1H,3H-2,4-dioxa-3,9a-methanopentaleno [4,3,2,1-cdef]phenanthrene-1,8(9H)-dione]
IC50 [1, 6]: > 50 µM | cytotoxic activities against four tested cancer cells (result in words) [2]: inactive; also recorded: losing of cytotoxic activities | IC50 [3, 7]: > 50 µM | IC50 [4, 8]: > 50 µM | IC50 [5, 9]: > 50 µM

CC(=O)OC1OC2C3OC4c5c(C)cc(=O)cc6c5C(C42)C1(CC6)C3C [Compound 5, (1S,3R,4aR,10aS,11S)-5,11-dimethyl-7-oxo-2a,2a1,3,4a,7,9,10,10a1-octahydro-1H-2,4-dioxa-3,10a-methanocyclohepta[bc]cyclopenta[jk]acenaphthylen-1-yl acetate]
IC50 [1, 6]: > 50 µM | cytotoxic activities against four tested cancer cells (result in words) [2]: losing of cytotoxic activities | IC50 [3, 7]: > 50 µM | IC50 [4, 8]: > 50 µM | IC50 [5, 9]: > 50 µM

Cc1cc(=O)cc2c3c1C1OC4C5OC(=O)C(CC2OC(=O)CCC(=O)O)(C4C)C3C15 [Compound 11b, 4-(((3R,4aR,9S,10aS,11S)-5,11-dimethyl-1,7-dioxo-2a,2a1,3,4a,7,9,10,10a1-octahydro-1H-2,4-dioxa-3,10a-methanocyclohepta[bc]cyclopenta[jk]acenaphthylen-9-yl)oxy)-4-oxobutanoic acid]
IC50 [1, 6]: > 50 µM | IC50 [2]: > 50 µM | IC50 [3, 7]: > 50 µM | IC50 [4, 8]: > 50 µM | IC50 [5, 9]: > 50 µM

Cc1cc(=O)cc2c3c1C1OC4C5OC(=O)C(CC2Br)(C4C)C3C15 [Compound 8, (3R,4aR,9R,10aS,11S)-9-bromo-5,11-dimethyl-2a,3,4a,9,10,10a1-hexahydro-1H-2,4-dioxa-3,10a-methanocyclohepta[bc]cyclopenta[jk]acenaphthylene-1,7(2a1H)-dione]
IC50 [1, 6]: 30.8 ± 0.6 µM | IC50 [3, 7]: 3.4 ± 0.22 µM | IC50 [4, 8]: 2.19 ± 0.23 µM | IC50 [5, 9]: 43.4 ± 1.08 µM

Cc1cc(=O)cc2c3c1C1OC4C5OC(=O)C(CC2OC(=O)c2nc(C)c(C)nc2C)(C4C)C3C15 [Compound 11f, (3R,4aR,9S,10aS,11S)-5,11-dimethyl-1,7-dioxo-2a,2a1,3,4a,7,9,10,10a1-octahydro-1H-2,4-dioxa-3,10a-methanocyclohepta[bc]cyclopenta[jk]acenaphthylen-9-yl 3,5,6-trimethylpyrazine-2-carboxylate]
IC50 [1, 6]: > 50 µM | cytotoxic activities against three other cancer cell lines (result in words) [2]: weak cytotoxic activities | IC50 [3, 7]: 18.6 ± 2.23 µM | IC50 [4, 8]: 10.8 ± 0.42 µM | IC50 [5, 9]: 25.9 ± 0.68 µM

Cc1cc(=O)cc2c3c1C1OC4C5OC(=O)C(CC2OC(=O)c2ccco2)(C4C)C3C15 (centres unmarked) [Compound 11c]
IC50 [1, 6]: > 50 µM | cytotoxic activities against three other cancer cell lines (result in words) [2]: weak cytotoxic activities | IC50 [3, 7]: 16.4 ± 1.92 µM | IC50 [4, 8]: 11 ± 0.34 µM | IC50 [5, 9]: 23.2 ± 0.67 µM

N.N.[Cl][Pt][Cl] [Cisplatin, reference compound]
IC50 ([1]; MTT, 48 h, Huh-7 cells): 15.04 ± 0.15 µM | IC50 ([3]; MTT, 48 h, A375 cells): 4.04 ± 0.23 µM | IC50 ([4]; MTT, 48 h, HCT-116 cells): 4.48 ± 0.18 µM | IC50 ([5]; MTT, 48 h, A549 cells): 8.53 ± 0.98 µM

Cc1cc(=O)c(N)c2c3c1C1OC4C5OC(=O)C(CC2)(C4C)C3C15 [Compound 2, (3R,4aR,10aS,11S)-8-amino-5,11-dimethyl-2a,3,4a,9,10,10a1-hexahydro-1H-2,4-dioxa-3,10a-methanocyclohepta[bc]cyclopenta[jk]acenaphthylene-1,7(2a1H)-dione]
IC50 [1, 6]: > 50 µM | cytotoxic activities against four tested cancer cells (result in words) [2]: losing of cytotoxic activities | IC50 [3, 7]: > 50 µM | IC50 [4, 8]: > 50 µM | IC50 [5, 9]: > 50 µM

Cc1cc(=O)cc2c3c1C1OC4C5OC(=O)C(CC2O)(C4C)C3C15 [Compound 12, (3R,4aR,9R,10aS,11S)-9-hydroxy-5,11-dimethyl-2a,3,4a,9,10,10a1-hexahydro-1H-2,4-dioxa-3,10a-methanocyclohepta[bc]cyclopenta[jk]acenaphthylene-1,7(2a1H)-dione]
IC50 ([1]; MTT, 48 h, Huh-7 cells): > 50 µM | IC50 ([3]; MTT, 48 h, A375 cells): 40.4 ± 7.58 µM | IC50 ([4]; MTT, 48 h, HCT-116 cells): 31.9 ± 0.69 µM | IC50 ([5]; MTT, 48 h, A549 cells): 34.7 ± 1.94 µM

Cc1cc(=O)cc2c3c1C1OC4C5OC(O)C(CC2)(C4C)C3C15 [Compound 4, (1R,3R,4aR,10aS,11S)-1-hydroxy-5,11-dimethyl-2a,3,4a,9,10,10a1-hexahydro-1H-2,4-dioxa-3,10a-methanocyclohepta[bc]cyclopenta[jk]acenaphthylen-7(2a1H)-one]
IC50 [1, 6]: > 50 µM | cytotoxic activities against four tested cancer cells (result in words) [2]: losing of cytotoxic activities | IC50 [3, 7]: > 50 µM | IC50 [4, 8]: > 50 µM | IC50 [5, 9]: > 50 µM
